Reference: patent USRE38828E1, “Parevins and tachytegrins” (IntraBiotics Pharmaceuticals, Inc., priority 1995, dated 2005)
In brackets after ≈: the same amount, converted by molar mass. Bridge positions count the residues as written; N and C are the ends. Square brackets hold non-standard residues; d marks the D form. Ends that are not written are not given here. Peptide text beside a SMILES is read from it. Sar = CNCC(=O)O

Columns and labels:
[1] = system: Staphylococcus aureus (MRSA); format: cell-based
Experimental: (§1) The radial diffusion assay in agarose gels is conducted using radiodiffusion and gel overlay techniques as described by Lehrer, R. I. et al. J Immunol Meth (1991) 137:167-173. […] In some cases, the underlay was supplemented with 100 mM NaCl. The units of activity in the radial diffusion assay were measured as described; 10 units correspond to a 1 mm diameter clear zone around the sample well. FIGS. 1-6 show the results against five test organisms in units described as above. A synthetic protegrin (PG-1) containing two cystines (sPG-1) or PG-1 in linear form were used as controls.
(§2) Several illustrative tachytegrins were synthesized as described in Example 1 and tested for activity against Staphylococcus aureus (MRSA), Pseudomonas (Psa), VREF, Candida and E. coli as described in Example 2. The results shown in Table 1 as minimal inhibitory concentration (MIC) in ug/ml were obtained with the C-terminal amidated forms except for the last two which were tested as the free acids, as indicated by *. In all peptides in Table 1, X is MeGly.

VREF = format: cell-based
Experimental: as §1, §2

E. coli ML-35p = experiment: radial diffusion assay in agarose gels, E. coli; format: cell-based
Experimental: Media for testing antimicrobial activity are designed to mimic certain specific conditions. The standard buffer medium, medium A, uses an underlay agar with the following composition: 0.3 mg/ml of trypticase soy broth powder, 1% w/v agarose and 10 mM sodium phosphate buffer (final pH 7.4). This will be designated either “medium A” or “standard in vitro conditions” herein.
A second medium contains 100 mM NaCl in order to mimic the salt levels in blood and tissue fluids. This will be designated “medium B” or “salt medium” herein.
as §1

[2] = system: T. vaginallis strain C1 (ATCC 30001); experiment: Trichomonas vaginalis motility, lysis and growth; format: cell-based, Trichomonas vaginallis
Experimental: For Trichomonas vaginallis, strain C1 (ATCC 30001) is grown as described by Gorrell, T. E. et al., Carlsberg Res Comm (1984) 49:259-268. […] Soon thereafter, the organisms become permeable to trypan blue, and, over the ensuing 15-30 minutes, lyse. As expected, such organisms fail to grow when introduced into their customary growth medium (Diamond's medium).

Pseudomonas (Psa) = experiment: minimal inhibitory concentration, Pseudomonas; format: cell-based; conditions: C-terminal amidated forms except * (free acids)
Experimental: as §1, §2

E. coli = format: cell-based
Experimental: as §1, §2

[3] = FIG. 1, E. coli, in the absence of salt
[4] = FIG. 1, E. coli, in the presence of 100 mM NaCl
[5] = FIG. 4, E. coli ML-35p, in the absence of salt
[6] = FIG. 4, E. coli ML-35p, in the presence of 100 mM NaCl

Compound: CC(C)C[C@@H]1NC(=O)[C@@H](NC(=O)CNC(=O)CNC(=O)[C@@H](N)CCCNC(=N)N)CSSC[C@@H](C(=O)N[C@@H](CCCNC(=N)N)C(=O)O)NC(=O)[C@H](C(C)C)NC(=O)[C@H](CCCNC(=N)N)NC(=O)[C@H](C(C)C)NC(=O)[C@H](C)NC(=O)[C@H](Cc2ccccc2)NC(=O)[C@H](CCCNC(=N)N)NC(=O)CNC(=O)[C@H](C(C)C)NC(=O)[C@H](C)NC(=O)[C@H](Cc2ccc(O)cc2)NC(=O)[C@H](CCCNC(=N)N)NC1=O [RGGCLRYAVGRFAVRVCR] (H-RGGCLRYAVGRFAVRVCR-OH; disulfide 4-17; N-terminus assumed)
- minimal inhibitory concentration (MIC) MRSA [1]: >32 µg/mL
- minimal inhibitory concentration (MIC) VREF (VREF): 5.3 µg/mL (≈ 2.6 µM)

Compound: CC(C)C[C@@H]1NC(=O)[C@@H](NC(=O)[C@H](Cc2ccccc2)NC(=O)CNC(=O)[C@@H](N)CCCNC(=N)N)CSSC[C@@H](C(=O)N[C@H](C(=O)N[C@@H](CCCNC(=N)N)C(=O)O)C(C)C)NC(=O)[C@H](Cc2ccccc2)NC(=O)[C@H](CCCNC(=N)N)NC(=O)[C@H](C(C)C)NC(=O)CN(C)C(=O)[C@H](Cc2ccccc2)NC(=O)[C@H](CCCNC(=N)N)NC(=O)CNC(=O)[C@H](C(C)C)NC(=O)CN(C)C(=O)[C@H](Cc2ccc(O)cc2)NC(=O)[C@H](CCCNC(=N)N)NC1=O [RGFCLRYXVGRFXVRFCVR] (H-RGFCLRY[Sar]VGRF[Sar]VRFCVR-OH; disulfide 4-17 (inferred); N-terminus assumed)
- minimal inhibitory concentration (MIC) MRSA [1]: >32 µg/mL
- minimal inhibitory concentration (MIC) VREF (VREF): 12 µg/mL (≈ 5.28 µM)

Compound: trans-parevin: parevin with disulfide bridges C5-C16 and C8-C13 (RGGRCLYCRRRFCVVCGR; disulfide 8-13, 5-16)
- antibacterial activity, radial diffusion (effectiveness) (E. coli ML-35p; [3]): slightly more effective than sPG-1 although slightly less effective than linear PG-1
- antibacterial activity, radial diffusion (effectiveness) (E. coli ML-35p; [4]): comparably effective
- antibacterial activity, radial diffusion (effectiveness) (E. coli ML-35p; [5]): comparably effective in the absence of salt and both were more effective than sPG-1
- antibacterial activity, radial diffusion (effectiveness) (E. coli ML-35p; [6]): maintained their effectiveness and were comparable

Compound: PG-3: protegrin PG-3 (RGGGLCYCRRRFCVCVGR; ends and bridges not checked; cysteine pairing not given here; UniProt P32196 131-148, looked up)
- motility of T. vaginallis ([2]; 25 ug/ml): retain their motility

Compound: CC(C)C[C@@H]1NC(=O)[C@@H](NC(=O)CNC(=O)CNC(=O)[C@@H](N)CCCNC(=N)N)CSSC[C@@H](C(=O)N[C@@H](CCCNC(=N)N)C(N)=O)NC(=O)[C@H](C(C)C)NC(=O)[C@H](CCCNC(=N)N)NC(=O)[C@H](C(C)C)NC(=O)[C@H](C)NC(=O)[C@H](Cc2ccccc2)NC(=O)[C@H](CCCNC(=N)N)NC(=O)CN(C)C(=O)[C@H](CCCNC(=N)N)NC(=O)[C@H](C)NC(=O)[C@H](Cc2ccc(O)cc2)NC(=O)[C@H](CCCNC(=N)N)NC1=O [RGGCLRYARXRFAVRVCR] (H-RGGCLRYAR[Sar]RFAVRVCR-NH2; disulfide 4-17 (inferred); N-terminus assumed)
- minimal inhibitory concentration (MIC) Paa (Pseudomonas (Psa)): 5.7 µg/mL (≈ 2.7 µM)
- minimal inhibitory concentration (MIC) MRSA [1]: >32 µg/mL

Compound: PG-1: protegrin PG-1 (RGGRLCYCRRRFCVCVGR; ends and bridges not checked; also: two disulfide bonds, pairing not given here; UniProt P32194 131-148, looked up)
- motility of T. vaginallis ([2]; 50 ug/ml, RPMI+1% heat-activated fetal calf serum, within a few minutes after exposure): becomes stationary
- lysis of T. vaginallis ([2]; 50 ug/ml, over the ensuing 15-30 minutes): lyse
- growth of exposed organisms in Diamond's medium ([2]; after exposure to 50 ug/ml): fail to grow

Compound: CC(C)C[C@@H]1NC(=O)[C@@H](NC(=O)[C@H](Cc2ccccc2)NC(=O)CNC(=O)[C@@H](N)CCCNC(=N)N)CSSC[C@@H](C(=O)N[C@@H](CCCNC(=N)N)C(N)=O)NC(=O)[C@H](C(C)C)NC(=O)[C@H](Cc2ccccc2)NC(=O)[C@H](CCCNC(=N)N)NC(=O)[C@H](C(C)C)NC(=O)CN(C)C(=O)[C@H](Cc2ccccc2)NC(=O)[C@H](CCCNC(=N)N)NC(=O)CNC(=O)[C@H](C(C)C)NC(=O)CN(C)C(=O)[C@H](Cc2ccc(O)cc2)NC(=O)[C@H](CCCNC(=N)N)NC1=O [RGFCLRYXVGRFXVRFVCR] (H-RGFCLRY[Sar]VGRF[Sar]VRFVCR-NH2; disulfide 4-18 (inferred); N-terminus assumed)
- minimal inhibitory concentration (MIC) MRSA [1]: >54 µg/mL

Compound: tachytegrin: tachytegrin with disulfide bridges C4-C17 and C8-C13 (RGGCRLYCRRRFCVVGCR; disulfide 8-13, 4-17)
- antibacterial activity, radial diffusion (effectiveness) (E. coli ML-35p; [3]): slightly more effective than sPG-1 although slightly less effective than linear PG-1
- antibacterial activity, radial diffusion (effectiveness) (E. coli ML-35p; [4]): comparably effective

Compound: CC(C)C[C@@H]1NC(=O)[C@@H](NC(=O)CNC(=O)CNC(=O)[C@@H](N)CCCNC(=N)N)CSSC[C@@H](C(=O)N[C@@H](CCCNC(=N)N)C(N)=O)NC(=O)[C@H](C(C)C)NC(=O)[C@H](CCCNC(=N)N)NC(=O)[C@H](C(C)C)NC(=O)[C@H](C)NC(=O)[C@H](Cc2ccccc2)NC(=O)[C@H](CCCNC(=N)N)NC(=O)[C@@H]2CCCN2C(=O)[C@H](C(C)C)NC(=O)[C@H](C)NC(=O)[C@H](Cc2ccc(O)cc2)NC(=O)[C@H](CCCNC(=N)N)NC1=O [RGGCLRYAVPRFAVRVCR] (H-RGGCLRYAVPRFAVRVCR-NH2; disulfide 4-17; N-terminus assumed)
- minimal inhibitory concentration (MIC) Paa (Pseudomonas (Psa)): 0.05 µg/mL (≈ 0.0241 µM)
- minimal inhibitory concentration (MIC) MRSA [1]: >128 µg/mL

Compound: cis-parevin: parevin with disulfide bridges C5-C8 and C13-C16 (RGGRCLYCRRRFCIVCG; disulfide 13-16, 5-8)
- antibacterial activity, radial diffusion (effectiveness) (E. coli ML-35p; [5]): comparably effective in the absence of salt and both were more effective than sPG-1
- antibacterial activity, radial diffusion (effectiveness) (E. coli ML-35p; [6]): maintained their effectiveness and were comparable

Compound: CC(C)C[C@@H]1NC(=O)[C@@H](NC(=O)[C@H](Cc2ccccc2)NC(=O)CNC(=O)[C@@H](N)CCCNC(=N)N)CSSC[C@@H](C(=O)N[C@H](C(=O)N[C@@H](CCCNC(=N)N)C(N)=O)C(C)C)NC(=O)[C@H](Cc2ccccc2)NC(=O)[C@H](CCCNC(=N)N)NC(=O)[C@H](C(C)C)NC(=O)[C@H]([C@@H](C)O)NC(=O)[C@H](Cc2ccccc2)NC(=O)[C@H](CCCNC(=N)N)NC(=O)[C@@H]2CCCN2C(=O)[C@H](C(C)C)NC(=O)[C@H]([C@@H](C)O)NC(=O)[C@H](Cc2ccc(O)cc2)NC(=O)[C@H](CCCNC(=N)N)NC1=O [RGFCLRYTVPRFTVRFCVR] (H-RGFCLRYTVPRFTVRFCVR-NH2; disulfide 4-17; N-terminus assumed)
- minimal inhibitory concentration (MIC) Paa (Pseudomonas (Psa)): 0.57 µg/mL (≈ 0.24 µM)
- minimal inhibitory concentration (MIC) MRSA [1]: 1.88 µg/mL (≈ 0.792 µM)
- minimal inhibitory concentration (MIC) E. Coli (E. coli): 0.99 µg/mL (≈ 0.417 µM)
